Patent publication US20240025849A1 (MAX DELBRÜCK-CENTRUM FÜR MOLEKULARE MEDIZIN IN DER …, priority 2020, published 2024)
pIC50: −log10 of the molar value. Entries after “also recorded” stand apart in the source; their conditions may differ. Like-named read-outs stand apart in the source and are kept apart here.

What was measured:
[1] = test system: primary cultured neonatal microglia; assay: LPS induced NO release, Griess assay, laboratory scaled setup; assay type: cell-based, mouse; conditions: for pIC50: 96 well plate, 1 h C1, then 1 μg/ml LPS 48 h, 2 nM to 20 μM, read-out: IC50, LPS induced NO release
[2] = test system: primary cultured neonatal astrocytes; assay: AlamarBlue assay in astrocytes; assay type: cell-based; conditions: 2.5 μM C1, 48 hours, unstimulated
Method: (§1) Primary cultured neonatal astrocytes. The preparation of primary cultured neonatal astrocytes followed the preparation of the primary cultured neonatal microglia, described above. After the third shake off, the remaining astrocytes were trypsinated, washed with PBS and seeded into a 96 well plate (10 000 cells/well, 200 μL medium per well).
AlamarBlue assay. Cells were seeded according to the protocols described above, after compounds and stimuli were added, the cells were washed once with HBSS (37° C.) and 100 μl of a 1:10 AlamarBlue (Thermo Fisher Scientific) dilution in plain medium was added. The conversion of resazurin to resorufin was measured by absorbance (absorbance wavelength of 570 nm and a reference wavelength of 600 nm) after 3 hours.
The inventors evaluated the metabolic activity, proliferation and cell death of primary cultured neonatal microglia, primary cultured neonatal astrocytes and the oligodendrocyte cell line OLN-93 under physiological conditions. All cells were treated with 2.5 μM C1 in DMSO or the corresponding DMSO concentration (125×10-5 v/v) for 48 hours without any additional stimulation followed by either an AlamarBlue assay to measure the metabolic activity, or an propidium iodide based proliferation and cell death assay. The data of the AlamarBlue assay and proliferation assay were normalised to the plain medium control. […]

[3] = Intravenous pharmacokinetic study in mice (blood plasma)
Method: Intravenous Pharmacokinetic Study in Mice. The intravenous pharmacokinetic study in mice was carried out by the company Touchstone Biosciences (Plymouth Meeting, USA) according to their standard procedures. In brief, 3 male adult mice of the CD-1 strain were fasted overnight. 5 mg/kg compound was given intravenously in one shot.

[4] = test system: primary cultured neonatal microglia; assay: IFNγ induced NO release, Griess assay; assay type: cell-based, mouse; conditions: for level of NO, % of its initial concentration (stimulated control): 100 ng/ml IFNγ 48 hours
Method: Primary cultured neonatal microglia. For preparation of cultured neonatal microglia, P0-P3 mice were used. 10 brains were extracted, meninges and cerebellum were removed and put on ice with Hank's balanced salt solution (HBSS). The dissected brains were washed 3 times before adding 400 μL trypsin (0.1 mg/L) and DNAse (5 μg/L) in phosphate buffered saline (PBS). After 2 min of incubation with this solution, the reaction was blocked by adding plain medium. After removal of the medium, 1 mg DNAse was added and the cells were mechanically dissociated, with a Pasteur pipette followed by a glass pipette. The cells were centrifuged for 10 min at 129 g at 4° C. The supernatant was discarded. The pellet was resuspended in plain medium and plated (2.5 brains/flask) in Poly-L-Lysine coated flasks. The cells were washed after 2 days with PBS and incubated for another 7 days in plain medium. Afterwards the medium was replaced by plain medium with 33% L929 conditioned medium. After 2 days, cells were harvested by shaking them for 30 min at 150 rpm. The supernatant was centrifuged for 10 min at 129 g at 4° C. The cells were plated into a 96 well plate (100 000 cells/well, 200 μL medium per well). This procedure could be repeated 2 times with a 2 day interval.
Griess assay. Cells were seeded according to the protocols described above, after compounds and stimuli were added, 100 μl of supernatant was transferred into a new 96 well plate and 100 μl freshly mixed Griess reagent were added. Griess reagent was composed of reagent A (100 mg Naphthylethylene in 50 ml aqua dest.) and reagent B (1 g Sulfanilamide, […] H3PO4 (85%) in 44 mL aqua dest.) mixed 1:1. The solution was carefully mixed and the absorbance was determined in a microplate reader at a wavelength of 550 nm.
In order to test whether C1 decreases NO release induced by other stimulation agents besides LPS which is mimicking a bacterial infection, the inventors used IFNγ to mimic a Th1 cell response (Yau et al., 2016) and PolyIC to mimic an anti-viral response (Jiang and Pisetsky, 2006). Given that our aim is to determine the compound's effect on already stimulated microglia (LPS, IFNγ, and PolyIC), each individual experiment is normalized to its stimulated control.

[5] = test system: primary cultured neonatal astrocytes; assay: Propidium iodide based proliferation and cell death assay in astrocytes; conditions: 2.5 μM C1, 48 hours, unstimulated
Method: as §1
Propidium iodide based proliferation and cell death assay. To determine the relative proliferation and cell death, the cells were seeded into a […], let adhere for 24 hours and afterwards treated for additional 48 hours. The supernatant was removed, and the cells were washed carefully with 37° C. HBSS once. 1/200 propidium iodide PBS solution was added and the cells were incubated for 10 minutes. The intensity of the propidium iodide signal of the dead cells was measured using a microplate reader. Afterwards, all cells were killed with a 10 min incubation of 10% DMSO and the propidium iodide signal of all cells was measured. All signals were corrected for the background noise, subtracting the blank signal. The percentage of dead cells was calculated by dividing the dead-cell-signal by the all-cell-signal. Proliferation was calculated as a relative value to the plain medium control.

eNOS = target: T1, eNOS (Homo sapiens, UniProt P29474); assay: NOS enzyme activity assay (Eurofins), eNOS; assay type: biochemical; conditions: C1: 1 nM and 1 μM; 30 min reaction
T1 construct: Eurofins (contract assay service)
Method: To evaluate the direct influence of cl on the different isoforms of NOS, an enzyme activity assay was conducted by Eurofins. C1 was mixed with the enzyme buffer, which included co-factors and substrates and by adding the enzyme the reaction was initiated. After 30 min the reaction was stopped, and NO concentration was measured. The results are normalised to positive control performed without any additional compounds and are presented as percentage in inhibition. […] To test the compounds effect on iNOS a concentration range from 1 μM up to 5 μM were applied (1, 10, 100 μM, 1, 10, 100 nM, 1, and 5 μM), and for testing eNOS and nNOS 1 nM and 1 μM were applied.

## COc1ccc(NC(=O)C(NC(=O)C2CCCN2C(=O)OCc2ccccc2)c2ccc(OC)cc2)cc1 (centres unmarked) [C1]
[1]
  pIC50: 6.60
[1]; C1 alone 0.025, 0.25, 2.5 μM, 48 hours, no LPS
  NO release in unstimulated microglia: did not show any significant difference; also recorded: did neither change the NO release
[1]; Mus musculus, Microglia
  pIC50: 6.60
[1]; post-treatment with 2.5 μM C1 after 24 hours LPS, from 8 hours (plain medium), 12 hours (DMSO)
  NO concentration in supernatant vs plain medium / DMSO: significantly reduced; also recorded: significant reduction
[1]; post-treatment: 24 hours LPS, medium change, then 2.5 μM C1 up to 60 hours
  calculated plateau of NO concentration in supernatant: 7 µM
[2]
  metabolic activity of astrocytes: no influence; also recorded: not affected
[3]; 5 mg/kg intravenous, 3 mice
  survival / health issues within 24 hours: All mice survived; also recorded: no health issues were reported and all mice survived
[3]; 5 min after 5 mg/kg intravenous, CD-1 male mice
  concentration in blood plasma: 12 µM
[3]; male, CD-1, mouse, plasma, intravenous, 5 mg/kg, concentration in blood plasma, 5 min after 5 mg/kg intravenous, CD-1 male mice
  concentration at 5 min: 11.9 µM
[3]; male, CD-1, mouse, plasma, intravenous, 5 mg/kg, concentration in blood plasma, 24 hours after 5 mg/kg intravenous, CD-1 male mice
  concentration at 24 h: 0.00126 µM
[4]; 25 nM C1
  level of NO, % of its initial concentration (stimulated control): 84%
[4]; 250 nM C1
  level of NO, % of its initial concentration (stimulated control): 41%
[4]; 2.5 μM C1
  level of NO, % of its initial concentration (stimulated control): 22%
[4]; pre-treatment with C1
  NO release upon stimulation with IFNγ: dose dependent decrease
[5]
  astrocytes cell death rate: no significant effect
  proliferation of astrocytes: did not show an effect
eNOS
  enzymatic activity of eNOS: does not interfere
